Source: patent publication US20160058829A1, “ANTI-FIBROTIC PEPTIDES AND THEIR USE IN METHODS FOR TREATING DISEASES AND DISORDERS CHARACTERIZED BY FIBROSIS” (Thrasos Innovation, Inc., priority 2011, published 2016)
“Also recorded” adds a separate entry of the source. Positions of bridges follow the written chain, without caps; N, C: chain ends.

How the values were obtained:
MCT cells = assay: TGF-β-induced EMT in MCT cells (inhibition and reversal); assay type: cell-based; conditions: for reversal of EMT: additional 48 h after EMT induction, BMP-7 1 μg/ml; for percentage of cells that regained epithelial characteristics (length to width ratio 3 or less): reversal experiment, MCT cells
Method: FIG. 52A-FIG. 52E THR-123 inhibits epithelial-mesenchymal transition in MCT cells. Inhibition of EMT by THR-123. […] FIG. 52D, FIG. 52E qPCR analysis for mesenchymal marker CTGF (FIG. 52D) and Snail1 (FIG. 52E). Total RNA was extracted from cells. 1 μg of total RNA was used for generating complementary cDNA and subsequently qPCR was performed. N=3. Data was expressed as mean±s.e.m. in the graph.
FIG. 54A-FIG. 54H THR-123 reverses TGF-β-induced EMT in MCT cells. FIG. 54A-FIG. 54E. Cell were induced EMT by 48 h incubation of TGF-β and EGF (FIG. 54E). After induction of EMT, cells are incubated with either BMP-7 (1 μg/ml) (FIG. 54C), THR-123 (10 μM) (FIG. 54D) or control peptide (FIG. 54E) for an additional 48 h. […] FIG. 54F. Ratio of length to width was calculated in reversal experiment. 5 representative pictures of the cells in different areas of the well, were taken by using the inverted microscope. A total of 100 cells were analyzed (20 cells per picture). […] The data are presented mean±s.e.m. in the graph. FIG. 54G: 3 or less in length to width ratio in MCT cell was estimated as epithelial characteristics and the percentage of epithelial characteristics in each experimental setting are estimated. 52% of BMP7 and 41% of THR-123 treated MCT cells regained epithelial characteristics. Experiments were repeated three times.
EMT was induced in NP1 cells or MCT cells by incubation with 3 ng/ml recombinant human […] for 48 h. When EMT occurred, the medium was removed and replaced with THR-123 (10 μM) or recombinant human BMP7 (100 ng/ml) in DMEM. After 48 h, the cells were characterized by immunocytochemistry using primary monoclonal antibodies to E-cadherin ([…]) and rhodamine-conjugated secondary antibodies (Jackson Immunoresearch, West Grove, Pa.) as previously described. The staining was visualized by fluorescence microscopy and documented representative pictures using Spot advanced software (Carl Zeiss, Oberkochen, Germany). Also protein and total RNA were harvested at the end of experiment. For the morphometric analysis for EMT, length/width of cells in bright field pictures are measured by image J software. The ratio of length/width was calculated.

NP-1 cells = assay: TGF-β-induced apoptosis in NP-1 cells (Annexin V); assay type: cell-based; conditions: TGF-β 3 ng/ml 24 h; BMP-7 1 μg/ml, THR-123 10 μM
Method: FIG. 48A-FIG. 48D THR-123 inhibits TGF-β-induced apoptosis in NP-1 cells. NP-1 cells are incubated with TGF-β (3 ng/ml) for 24 h in the presence of indicated molecules. Apoptosis was analyzed by Annexin V labeling (Roche). Representative merged picture (Green: Annexin V and bright field image) of cells treated with TGF-β only (FIG. 48A), TGF-β+BMP-7 (1 μg/ml) (FIG. 48B), TGF-β+THR-123 (10 μM) (FIG. 48C) and TGF-β+ctrl peptide (FIG. 48D).

[1] = test system: Streptozotocin-induced diabetic CD-1 mice; assay: STZ-induced diabetic nephropathy study (THR-123 month 5-6, BMP-7 month 1-6); assay type: in vivo; conditions: for net increase in FSP1 (mesenchymal tissue) at six months versus normal animals: BMP7 five months, SEQ ID NO: 1 final month, untreated 27 and 29 times; for interstitial fibrosis (collagen accumulation, Masson's trichrome): THR-123 5 mg/kg/day oral; for increase in BUN level relative to normal animals: untreated 85% at 5 months, 94% at 6 months
Method: FIG. 17 depicts the STZ experimental protocol behind the study discussed in Example 2. […] Mice were given a single intraperitoneal injection of Streptozotocin (STZ) in sodium citrate buffer (pH 4.5) at a dose of 200 mg/kg. Blood glucose was measured by tail vein sampling using the glucose oxidase enzymatic test (Medisense glucometer, Abbott Laboratories, Bedford, Mass.). Diabetic nephropathy was evaluated in groups of mice killed at the end of 5 or 6 months (vehicle control groups) or 6 months (THR123 or BMP-7 group) after STZ injection. A group of STZ injected mice received oral administration of Thrasos compound daily at a dose of 5 mg/kg body weight for a month, from month 5 to month 6 after STZ injection. BMP-7 was administered intraperitoneally at a dose of 300 μg/kg body weight from month 1 to month 6.
Analysis of fibrosis in the H&E and Masson's trichrome stain in FIG. 18 through 22 from the mouse STZ study outlined in FIG. 17. Using the same image color analysis method used above to quantitate E-cadherin fluorescence for the in vitro EMT experiments, the images were quantitated, and the results shown in FIG. 23.
Eight weeks old male CD-1 mice are used all the diabetic experiment. Mice are performed single intraperitoneal (i.p.) injection of streptozotocin (STZ: 200 mg/Kg). Induction of diabetes is defined as blood glucose level >16 mM by 2 weeks after STZ injection. One month after induction of diabetes, mice were separated into three groups (BMP7, vehicle and non-treatment) and BMP7 (i.p. 300 μg/Kg/every other day) or vehicle injection was initiated. Five months after induction of diabetes, THR-123 (p.o. 5 mg/Kg/day) administration is initiated in diabetic mice. Mice are sacrificed at 5 (before the treatment) or 6 months after induction of diabetes.

[2] = THR-123 month 5-6, BMP-7 month 1-6
[3] = THR-123 month 5-6, BMP-7 month 1-6, listed as THR-123

(H)-CYFDDSSNVLCKKYRS-(OH) (H-CYFDDSSNVLCKKYRS-OH; disulfide 1-11; SMILES CC(C)C[C@@H]1NC(=O)[C@H](C(C)C)NC(=O)[C@H](CC(N)=O)NC(=O)[C@H](CO)NC(=O)[C@H](CO)NC(=O)[C@H](CC(=O)O)NC(=O)[C@H](CC(=O)O)NC(=O)[C@H](Cc2ccccc2)NC(=O)[C@H](Cc2ccc(O)cc2)NC(=O)[C@@H](N)CSSC[C@@H](C(=O)N[C@@H](CCCCN)C(=O)N[C@@H](CCCCN)C(=O)N[C@@H](Cc2ccc(O)cc2)C(=O)N[C@@H](CCCNC(=N)N)C(=O)N[C@@H](CO)C(=O)O)NC1=O) [SEQ ID NO: 1]
TGF-β induced expression of snail and CTGF (qPCR) (MCT cells; FIG. 52 D, E): inhibited | TGF-β-induced EMT, cell shape (co-incubation) (MCT cells; TGF-β 2.5 ng/ml 48 h, THR-123 10 μM): prevents these phenotypic changes | reversal of EMT (MCT cells; THR-123 10 μM): Reversal of EMT was observed | percentage of cells that regained epithelial characteristics (length to width ratio 3 or less) (MCT cells): 41% | TGF-β-induced apoptosis (NP-1 cells): decreased apoptosis | net increase in FSP1 (mesenchymal tissue) at six months versus normal animals [1]: 2 times | interstitial fibrosis (collagen accumulation, Masson's trichrome) ([1]; month 5 to 6, listed as THR123, 5 mg/kg/day): reduced renal fibrosis | interstitial fibrosis (collagen accumulation, Masson's trichrome) ([1]; month 5 to 6, listed as THR-123, 5 mg/kg/day): lower than it was at 5 months; also recorded: markedly reduced | glomerular surface area [1, 2]: little effect | relative interstitial volume ([1]; THR-123 month 5-6, BMP-7 month 1-6, listed as THR123): decreased interstitial volume | BUN levels / renal function [1, 3]: reversed renal dysfunction; also recorded: dropped to those of control animals | damaged tubules / tubular atrophy [1, 3]: inhibited tubular atrophy and interstitial volume increase; also recorded: reversed tubular atrophy and interstitial volume expansion; also recorded: markedly reduced | mesangial matrix expansion [1, 3]: inhibited mesangium expansion; also recorded: reversed mesangial matrix expansion; also recorded: significantly reduced | relative interstitial volume [1, 3]: markedly reduced | EMT program (FSP1 and E-cadherin double positive tubules) ([1]; mouse, in vivo): inhibited EMT program | macrophage infiltration (Mac-1) ([1]; mouse, in vivo): significantly reduced the infiltration by macrophages | phospho-Smad1/5 accumulation in kidney ([1]; mouse, in vivo): increased accumulation of phospho-Smad1/5 | FSP-1 marker concentration relative to levels at 5 and 6 months ([1]; one month treatment, month 5 to 6): less than 1/10 | increase in mesangial matrix at 6 months ([1]; untreated 64% at 5 months, 104% at 6 months): 37% | increase in BUN level relative to normal animals [1]: 17% | increase in BUN level relative to normal animals ([1]; listed as THR-123): 12%

B1: BMP-7: bone morphogenetic protein-7; recombinant human BMP7, positive control (protein)
chain: STGSKQRSQNRSKTPKNQEALRMANVAENSSSDQRQACKKHELYVSFRDLGWQDWIIAPEGYAAYYCEGECAFPLNSYMNATNHAIVQTLVHFINPETVPKPCCAPTQLNAISVLYFDDSSNVILKKYRNMVVRACGCH
reversal of EMT (MCT cells; THR-123 10 μM): Reversal of EMT was observed | percentage of cells that regained epithelial characteristics (length to width ratio 3 or less) (MCT cells): 52% | TGF-β-induced apoptosis (NP-1 cells): decreased apoptosis | net increase in FSP1 (mesenchymal tissue) at six months versus normal animals [1]: 3 times | BUN levels / renal function [1, 2]: reversed renal dysfunction; also recorded: dropped to those of control animals | damaged tubules / tubular atrophy [1, 2]: inhibited tubular atrophy and interstitial volume increase | mesangial matrix expansion [1, 2]: inhibited mesangium expansion; also recorded: significantly reduced | relative interstitial volume [1, 2]: markedly reduced | damaged tubules / tubular atrophy ([1]; THR-123 month 5-6, BMP-7 month 1-6, listed as BMP): halts the progression | mesangial matrix expansion ([1]; THR-123 month 5-6, BMP-7 month 1-6, listed as BMP7): unaffected | EMT program (FSP1 and E-cadherin double positive tubules) ([1]; mouse, in vivo): inhibited EMT program | macrophage infiltration (Mac-1) ([1]; mouse, in vivo): significantly reduced the infiltration by macrophages | increase in BUN level relative to normal animals [1]: 2%
